Measured values reported in ChEMBL document CHEMBL5036346, “Role of Chain Length and Degree of Unsaturation of Fatty Acids in the Physicochemical and Pharmacological Behavior of Drug-Fatty Acid Conjugates in Diabetes” (J Med Chem, 2021).
Activity calls are given as the source filed them. No cut-off for these calls is given here.

What was measured:
MIN6 [1] = experiment: Cytotoxicity against mouse MIN6 cells assessed as cell viability at 20 uM equiv. LSF measured after 48 hrs by MTT assay; type: cell-based; details: min6, 48 h
Erythrocyte = experiment: Induction of hemolysis in Wistar rat RBC at 20 uM equiv. LSF measured after 1 hr by spectrophotometric method; type: cell-based
[2] = Drug uptake in mouse MIN6 cells assessed as lisofylline-level in cell lysates at 20 uM equiv. LSF measured after 6 hrs by HPLC analysis; type: ADME, subcellular; details: min6, 6 h
MIN6 [3] = experiment: Cytoprotective activity against cytokine-mediated cytotoxicity in mouse MIN6 cells assessed as increase in cell viability at 20 uM equiv. LSF incubated for 48 hrs in presence of cocktail of cytokines TNF-alpha/IL-1-beta/IFN-gamma by MTT assay; type: functional, cell-based
[4] = Initial plasma concentration in Wistar rat at 30 mg/kg, iv by HPLC analysis; type: ADME, organism-based
[5] = Half life in Wistar rat at 30 mg/kg, iv measured after 24 hrs by HPLC analysis; type: ADME, organism-based; details: in vivo; for half-life: Wistar
[6] = AUC (0 to t) in Wistar rat at 30 mg/kg, iv measured after 24 hrs by HPLC analysis; type: ADME, organism-based; parameters: route intravenous, time 24 hrs, dose 30 mg/kg; details: in vivo
[7] = AUC (0 to infinity) in Wistar rat at 30 mg/kg, iv by HPLC analysis; type: ADME, organism-based; parameters: time infinity, route intravenous, dose 30 mg/kg; details: in vivo; for AUC(0-inf): Wistar
[8] = AUMC (0 to t) in Wistar rat at 30 mg/kg, iv measured after 24 hrs by HPLC analysis; type: ADME, organism-based; details: in vivo
[9] = AUMC (0 to infinity) in Wistar rat at 30 mg/kg, iv by HPLC analysis; type: ADME, organism-based; details: in vivo
[10] = MRT in Wistar rat at 30 mg/kg, iv measured after 24 hrs by HPLC analysis; type: ADME, organism-based; details: in vivo
[11] = Volume of distribution in Wistar rat at 30 mg/kg, iv measured after 24 hrs by HPLC analysis; type: ADME, organism-based; details: in vivo
Rattus norvegicus [12] = experiment: Antidiabetic activity against STZ-induced diabetic Wistar rat model assessed as increase in plasma insulin level at 30 mg/kg, ip administered once daily for 5 weeks and measured after 3 to 5 weeks; type: functional, organism-based; details: time 3-5 weeks
Rattus norvegicus [13] = experiment: Protection against STZ-induced oxidative stress-mediated liver toxicity in Wistar rat assessed as reduction in plasma ALAT level at 30 mg/kg, ip administered once daily for 5 weeks measured after 3 to 5 weeks; type: functional, organism-based; details: time 3-5 weeks
Rattus norvegicus [14] = experiment: Protection against STZ-induced oxidative stress-mediated liver toxicity in Wistar rat assessed as reduction in plasma ASAT level at 30 mg/kg, ip administered once daily for 5 weeks measured after 3 to 5 weeks; type: functional, organism-based; details: time 3-5 weeks
Rattus norvegicus [15] = experiment: Protection against STZ-induced renal toxicity in Wistar rat assessed as reduction in plasma uric acid level at 30 mg/kg, ip administered once daily for 5 weeks measured after 3 to 5 weeks; type: functional, organism-based; details: time 3-5 weeks
Rattus norvegicus [16] = experiment: Protection against STZ-induced dyslipidemia in Wistar rat assessed as reduction in plasma triglyceride level at 30 mg/kg, ip administered once daily for 5 weeks measured after 3 to 5 weeks; type: functional, organism-based; details: time 3-5 weeks
Rattus norvegicus [17] = experiment: Protection against STZ-induced dyslipidemia in Wistar rat assessed as reduction in plasma cholesterol level at 30 mg/kg, ip administered once daily for 5 weeks measured after 3 to 5 weeks; type: functional, organism-based; details: time 3-5 weeks
Rattus norvegicus [18] = experiment: Protection against STZ-induced pancreatic beta cell destruction in Wistar rat assessed as proper arrangement of islets at 30 mg/kg, ip administered once daily for 5 weeks and measured on day 35 by Hematoxylin and eosin staining based analysis; type: functional, organism-based
Albumin [19] = biological target: T1, Albumin (Bos taurus, UniProt P02769); experiment: Binding affinity to bovine serum albumin assessed as decrease in fluorescence intensity measured after 30 mins by fluorescence quenching method; type: ADME; details: cattle, isolated protein, 0.5 h
[20] = Elimination rate constant in Wistar rat at 30 mg/kg,iv measured after 24 hrs by HPLC analysis; type: ADME, organism-based; details: in vivo
Rattus norvegicus [21] = experiment: Protection against STZ-induced inflammation in Wistar rat assessed as reduction in CD4+ T-cell infiltration into pancreatic islets at 30 mg/kg, ip administered once daily for 5 weeks and measured on day 35 by […] based analysis; type: functional, organism-based
Rattus norvegicus [22] = experiment: Protection against STZ-induced inflammation in Wistar rat assessed as reduction in CD8+ T-cell infiltration into pancreatic islets at 30 mg/kg, ip administered once daily for 5 weeks and measured on day 35 by […] based analysis; type: functional, organism-based
[23] = Aggregation property of the compound assessed as critical micelle concentration by fluorescence based analysis; type: physicochemical
Rattus norvegicus [24] = experiment: Antidiabetic activity against STZ-induced diabetic Wistar rat model assessed as decrease in fasting blood glucose level at 30 mg/kg, ip administered once daily for 5 weeks and measured after 3 weeks by glucometric analysis; type: functional, organism-based
Rattus norvegicus [25] = experiment: Antidiabetic activity against STZ-induced diabetic Wistar rat model assessed as decrease in fasting blood glucose level at 30 mg/kg, ip administered once daily for 5 weeks and measured after 5 weeks by glucometric analysis; type: functional, organism-based
[26] = Initial plasma concentration in Wistar rat at 15 mg/kg, iv by HPLC analysis; type: ADME, organism-based
[27] = Half life in Wistar rat at 15 mg/kg, iv measured after 24 hrs by HPLC analysis; type: ADME, organism-based; details: in vivo
[28] = AUC (0 to t) in Wistar rat at 15 mg/kg, iv measured after 24 hrs by HPLC analysis; type: ADME, organism-based; parameters: route intravenous, dose 15 mg/kg, time 24 hrs; details: in vivo
[29] = AUC (0 to infinity) in Wistar rat at 15 mg/kg, iv by HPLC analysis; type: ADME, organism-based; parameters: time infinity, route intravenous, dose 15 mg/kg; details: in vivo
[30] = AUMC (0 to t) in Wistar rat at 15 mg/kg, iv measured after 24 hrs by HPLC analysis; type: ADME, organism-based; details: in vivo
[31] = AUMC (0 to infinity) in Wistar rat at 15 mg/kg, iv by HPLC analysis; type: ADME, organism-based; details: in vivo
[32] = MRT in Wistar rat at 15 mg/kg, iv measured after 24 hrs by HPLC analysis; type: ADME, organism-based; details: in vivo
[33] = Volume of distribution in Wistar rat at 15 mg/kg, iv measured after 24 hrs by HPLC analysis; type: ADME, organism-based; details: in vivo
[34] = Clearance in Wistar rat at 15 mg/kg, iv measured after 24 hrs by HPLC analysis; type: ADME, organism-based; details: in vivo
[35] = Elimination rate constant in Wistar rat at 15 mg/kg,iv measured after 24 hrs by HPLC analysis; type: ADME, organism-based; details: in vivo
Rattus norvegicus [36] = experiment: Antidiabetic activity against STZ-induced diabetic Wistar rat model assessed as decrease in fasting blood glucose level at 15 mg/kg, ip administered once daily for 5 weeks and measured after 3 weeks by glucometric analysis; type: functional, organism-based
Rattus norvegicus [37] = experiment: Antidiabetic activity against STZ-induced diabetic Wistar rat model assessed as decrease in fasting blood glucose level at 15 mg/kg, ip administered once daily for 5 weeks and measured after 5 weeks by glucometric analysis; type: functional, organism-based
Rattus norvegicus [38] = experiment: Protection against STZ-induced pancreatic beta cell destruction in Wistar rat assessed as proper arrangement of islets at 15 mg/kg, ip administered once daily for 5 weeks and measured on day 35 by Hematoxylin and eosin staining based analysis; type: functional, organism-based
[39] = Clearance in Wistar rat at 30 mg/kg, iv measured after 24 hrs by HPLC analysis; type: ADME, organism-based; details: in vivo
[40] = Prodrug release in rat plasma assessed as intact parent compound remaining measured after 72 hrs by HPLC analysis; type: ADME, cell-free
Rattus norvegicus [41] = experiment: Antidiabetic activity against STZ-induced diabetic Wistar rat model assessed as decrease in mortality at 30 mg/kg, ip administered once daily for 5 weeks; type: functional, organism-based
Albumin [42] = biological target: T1, Albumin; experiment: Binding affinity to bovine serum albumin assessed as bathochromic peak shift measured after 30 mins by fluorescence quenching method; type: ADME; details: cattle, isolated protein, 0.5 h

T1 sequence (P02769 whole entry): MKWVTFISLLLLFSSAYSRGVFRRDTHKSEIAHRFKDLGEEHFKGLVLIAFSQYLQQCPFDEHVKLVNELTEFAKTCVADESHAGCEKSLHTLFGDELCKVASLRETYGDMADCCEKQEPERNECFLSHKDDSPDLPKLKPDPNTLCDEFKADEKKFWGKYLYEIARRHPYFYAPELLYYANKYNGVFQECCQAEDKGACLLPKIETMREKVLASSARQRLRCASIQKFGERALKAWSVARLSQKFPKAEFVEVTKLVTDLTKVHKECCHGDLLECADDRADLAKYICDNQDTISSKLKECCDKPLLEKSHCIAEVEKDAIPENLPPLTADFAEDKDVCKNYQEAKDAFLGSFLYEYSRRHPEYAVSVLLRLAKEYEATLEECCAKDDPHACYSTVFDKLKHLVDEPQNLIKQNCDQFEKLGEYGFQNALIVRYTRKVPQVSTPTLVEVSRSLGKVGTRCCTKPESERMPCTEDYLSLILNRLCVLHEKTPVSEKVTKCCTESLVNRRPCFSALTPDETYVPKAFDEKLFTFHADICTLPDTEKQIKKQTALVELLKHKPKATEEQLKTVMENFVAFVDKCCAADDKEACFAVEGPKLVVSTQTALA

Row | Compound | Activity (MIN6 [1]) | Activity (Erythrocyte) | Activity (MIN6 [3]) | C0 [4] [ng/mL] | AUC(0-t) at 24 h [6] [ng·h/mL] | AUMCt [8] [ng·h²/mL] | AUMC [9] [ng·h²/mL] | Vd [11] [L/kg] | Activity (Rattus norvegicus [12]) | Activity (Rattus norvegicus [13]) | Activity (Rattus norvegicus [14]) | Activity (Rattus norvegicus [15]) | Activity (Rattus norvegicus [16]) | Activity (Rattus norvegicus [17]) | Activity (Rattus norvegicus [18]) | Kb (Albumin [19]) | k el at 24 h [20] [s⁻¹] | Activity (Rattus norvegicus [21]) | Activity (Rattus norvegicus [22]) | CMC [23] [µg/mL] | other results
1 | CCCCC/C=C/CC=CCCCCCCCC(=O)OC(C)CCCCn1c(=O)c2c(ncn2C)n(C)c1=O (configuration not stated) | Non-Toxic | Non-Toxic | Active | 4900 | 16200 | 77100 | 98700 | 2.59 | Active | Active | Active | Active | Active | Active | Active | 2.7 10^4L/mol | 6.39e-05 | Active | Active | 0.81 | Drug uptake [2]: Active; half-life [5]: 3.12 h; AUC [7]: 16984.11 ng·h/mL; MRT ([10]; Wistar, read-out: MRT): 6.55 h
2 | CC(CCCCn1c(=O)c2c(ncn2C)n(C)c1=O)OC(=O)CCCCC1CCSS1 (configuration not stated) | Non-Toxic | Non-Toxic | Active | 4120 | 13500 | 67500 | 77300 | 1.77 | Active | Active | Active | Active | Active | Active | Active | 2.05 10^4L/mol | 0.000142 | Active | Active | 6.31 | t1/2 ([5]; 30 mg/kg, 24 h): 1.26 h; AUC [7]: 13838.8 ng·h/mL; MRT ([10]; 30 mg/kg, 24 h): 5.16 h; Activity (Rattus norvegicus [24]): inactive; Activity (Rattus norvegicus [25]): inactive
3 | C[C@@H](O)CCCCn1c(=O)c2c(ncn2C)n(C)c1=O [LISOFYLLINE] | Non-Toxic | – | – | – | – | – | – | – | – | – | – | – | – | – | – | 6.32 10^4L/mol | – | – | – | – | C0 [26]: 16400 ng/mL; half-life [27]: 0.752 h; AUC(0-t) at 24 h [28]: 14700 ng·h/mL; AUC(0-inf) [29]: 14700 ng·h/mL; AUMCt [30]: 12100 ng·h²/mL; AUMC [31]: 12800 ng·h²/mL; MRT [32]: 0.818 h; Vd [33]: 0.962 L/kg; clearance [34]: 17 mL/min/kg; k el at 24 h [35]: 0.000257 s⁻¹; Activity (Rattus norvegicus [36]): Active; Activity (Rattus norvegicus [37]): Active; Activity (Rattus norvegicus [38]): Active
4 | CCCCCCCCC=CCCCCCCCC(=O)OC(C)CCCCn1c(=O)c2c(ncn2C)n(C)c1=O (configuration not stated) | Non-Toxic | Non-Toxic | Active | 4750 | 6110 | 30500 | 43200 | 15 | Active | Active | Active | Active | Active | Active | Active | 6.34 10^4L/mol | 4.44e-05 | Active | Active | 7.58 | Drug uptake [2]: 56 ng; half-life [5]: 4.44 h; AUC(0-inf) [7]: 6640 ng·h/mL; MRT ([10]; Wistar, read-out: MRT): 7.91 h; clearance [39]: 40.3 mL/min/kg; Activity (Rattus norvegicus [24]): Active; Activity (Rattus norvegicus [25]): Active; Stability [40]: 9.74%; Activity (Rattus norvegicus [41]): Active
5 | CCCCCCCCCCCCCCCC(=O)OC(C)CCCCn1c(=O)c2c(ncn2C)n(C)c1=O (configuration not stated) | Non-Toxic | Non-Toxic | Active | 267 | 3490 | 29900 | 24800 | 13.8 | Active | Active | Active | Active | Active | Active | Active | 5.55 10^4L/mol | 4.72e-05 | Active | Active | 7.4 | Drug uptake [2]: Active; half-life [5]: 3.59 h; AUC(0-inf) [7]: 3890 ng·h/mL; MRT ([10]; Wistar, read-out: MRT): 9.07 h; clearance [39]: 64.9 mL/min/kg; Activity (Rattus norvegicus [24]): Active; Activity (Rattus norvegicus [25]): Active; Activity (Albumin [42]): Active; Activity (Rattus norvegicus [41]): Active
